Measurements as given in patent US10738056B2 (Aduro BioTech, Inc., priority 2017, dated 2020).
Like-named read-outs stand apart in the source and are kept apart here.

Experiments:
[1] = tested on: MCP-1/CCL2 secretion by Trex1-KO BMM; assay: Inhibition of MCP-1/CCL2 secretion by Trex1-KO bone marrow-derived macrophages; type: cell-based, mice; parameters: key to BMM IC50 M (MCP-1): A: an IC50 value less than 5 μM; B: an IC50 value between 5 and 20 μM; where an IC50 value could not be calculated from the data; details: MCP-1 secretion; for IC50: Mus musculus, Macrophage, read-out: BMM IC50 M (MCP-1)
Method: (§1) A cellular assay can be used to asses the compounds of the invention for their ability to inhibit cytokine production. Bone marrow macrophages harvested from mice can be used to determine response as a function of compound concentration.
(§2) The inhibition of secreted cytokine was measured in bone marrow-derived macrophages (BMMs) from diseased mice to evaluate the potency of compounds of the invention as described herein. […] To derive bone marrow macrophages, marrow extracted from the femurs and tibias were harvested from Trex1-KO mice was cultured in growth media supplemented with macrophage colony-stimulating factor (M-CSF). Differentiated BMM were harvested and frozen for subsequent experimentation. For treatment with compound C1089 (see Example 13), a frozen stock of Trex1-KO BMM was thawed and 1×10^5 cells were plated in 96 well format. BMMs were treated with a dilution series of C1089 and incubated overnight at 37° C. 5% CO2, at which point cellular supernatants were harvested and stored at −80° C. for subsequent analysis. The media used for this dilution series was without FBS. Remaining cells were evaluated for viability using Cell Titer Glo 2.0 kit according to the manufacturer instructions. BMM supernatants were evaluated for the secreted cytokine […] (RANTES/CCL5) or for secreted cytokine monocyte chemoattractant protein 1 (MCP-1/CCL2) using cytometric bead array mouse Flex Set kits (BD Biosciences). Cytokine concentration was calculated from a standard curve and normalized to vehicle (DMSO) treated cells.

[2] = biological target: Human cGAS amino acids 155-522 (Homo sapiens (Human), UniProt Q8N884); assay: cGAS biochemical activity assay (ATP remaining, Kinase-Glo Max luminescence); details: human cGAS 155-522, ATP remaining (Kinase-Glo Max); read-out: cGAS IC50
Sequence of Human cGAS amino acids 155-522 (Q8N884 157-522): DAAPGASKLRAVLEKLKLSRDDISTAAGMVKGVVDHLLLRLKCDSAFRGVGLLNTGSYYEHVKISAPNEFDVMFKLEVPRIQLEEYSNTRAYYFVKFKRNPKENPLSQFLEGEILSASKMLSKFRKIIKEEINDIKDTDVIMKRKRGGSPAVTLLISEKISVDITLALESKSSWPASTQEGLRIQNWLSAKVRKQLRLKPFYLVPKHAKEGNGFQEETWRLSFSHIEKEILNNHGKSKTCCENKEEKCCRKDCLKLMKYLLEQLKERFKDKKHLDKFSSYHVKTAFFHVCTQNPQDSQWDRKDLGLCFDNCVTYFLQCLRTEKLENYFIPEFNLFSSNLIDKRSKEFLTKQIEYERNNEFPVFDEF

[3] = tested on: cGAS/STING pathway in THP1 cells; assay: THP1 cell-based cGAS/STING pathway activity assay (IRF-3-linked luciferase reporter)
How it was run: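 THP1 cells carrying an IRF-3-driven luciferase reporter were read across a range of compound concentrations, and IC50 values were derived from these concentration responses; the assay upper limit was 100 μM.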

[4] = tested on: RANTES/CCL5 secretion by Trex1-KO BMM; assay: Inhibition of RANTES/CCL5 secretion by Trex1-KO bone marrow-derived macrophages; type: cell-based, mice; parameters: key to BMM IC50 R (RANTES): A: an IC50 value less than 5 μM; B: an IC50 value between 5 and 20 μM; where an IC50 value could not be calculated from the data; details: RANTES secretion
Method: as §1, §2

| SMILES | BMM IC50 M (MCP-1) [1] | IC50 [2] | IC50 ([3]; Homo sapiens, THP-1) | BMM IC50 R (RANTES) [4] | IC50 [1] | IC50 ([4]; Mus musculus, Macrophage, read-out: BMM IC50 R (RANTES)) | IC50 ([3]; read-out: THP-1 IC50) |
| --- | --- | --- | --- | --- | --- | --- | --- |
| COc1ccccc1NC(=O)c1c(C)[nH]c2c(C3CCCC3)c(C(F)(F)F)nn2c1=O [Compound A1052, 3-cyclopentyl-N-(2-methoxyphenyl)-5-methyl-7-oxo-2-(trifluoromethyl)-4,7-dihydropyrazolo[1,5-a]pyrimidine-6-carboxamide] | C | 20 to 250 µM | – | – | – | – | – |
| Cc1[nH]c2c(-c3ccccc3)c(C(F)(F)F)nn2c(=O)c1C(=O)Nc1ccccc1NS(=O)(=O)c1ccccc1 [Compound A1059, 5-methyl-7-oxo-3-phenyl-N-(2-(phenylsulfonamido)phenyl)-2-(trifluoromethyl)-4,7-dihydropyrazolo[1,5-a]pyrimidine-6-carboxamide] | C | < 20 µM | < 20 µM | – | – | – | – |
| Cc1[nH]c2c(-c3ccccc3)c(C(F)(F)F)nn2c(=O)c1C(=O)Nc1cccc(OC2CCCC2)c1 [Compound A1082, N-(3-(cyclopentyloxy)phenyl)-5-methyl-7-oxo-3-phenyl-2-(trifluoromethyl)-4,7-dihydropyrazolo[1,5-a]pyrimidine-6-carboxamide] | C | < 20 µM | < 20 µM | C | – | – | – |
| Cc1[nH]c2c(-c3ccccc3)c(C(F)(F)F)nn2c(=O)c1C(=O)Nc1nc(C2CC2)cs1 [Compound A1095, N-(4-cyclopropylthiazol-2-yl)-5-methyl-7-oxo-3-phenyl-2-(trifluoromethyl)-4,7-dihydropyrazolo[1,5-a]pyrimidine-6-carboxamide] | C | < 20 µM | < 20 µM | C | – | – | – |
| COc1cc(Br)cc(NC(=O)c2c(C)[nH]c3c(-c4ccccc4)c(C(F)(F)F)nn3c2=O)c1 [Compound A1129, N-(3-bromo-5-methoxyphenyl)-5-methyl-7-oxo-3-phenyl-2-(trifluoromethyl)-4,7-dihydropyrazolo[1,5-a]pyrimidine-6-carboxamide] | – | < 20 µM | 20 to 100 µM | C | 5 to 20 µM | – | – |
| COc1cc(Cl)cc(NC(=O)c2c(C)[nH]c3c(-c4ccccc4)c(C(F)(F)F)nn3c2=O)c1 [Compound A1134, N-(3-chloro-5-methoxyphenyl)-5-methyl-7-oxo-3-phenyl-2-(trifluoromethyl)-4,7-dihydropyrazolo[1,5-a]pyrimidine-6-carboxamide] | – | < 20 µM | < 20 µM | – | < 5 µM | < 5 µM | – |
| CO[C@@H]1CCCC(c2nnc(-c3c(C)[nH]c4c(-c5ccccc5)c(C(F)(F)F)nn4c3=O)o2)C1 (stereo partly drawn) [D1021 Iso-2] | – | < 20 µM | – | – | – | – | > 100 µM |
| CO[C@H]1CCCCC1c1nnc(-c2c(C)[nH]c3c(-c4ccccc4)c(C(F)(F)F)nn3c2=O)o1 (stereo partly drawn) [D1046 Iso-1] | – | < 20 µM | – | – | – | – | < 20 µM |
| CO[C@@H]1CCCC[C@H]1c1nnc(-c2c(C)[nH]c3c(-c4ccccc4)c(C(F)(F)F)nn3c2=O)o1 [D1046 Iso-3] | – | < 20 µM | – | – | – | – | > 100 µM |
| CO[C@@H]1CCCC1c1nnc(-c2c(C)[nH]c3c(-c4ccccc4)c(C(F)(F)F)nn3c2=O)o1 (stereo partly drawn) [D1049 Iso-2] | – | < 20 µM | – | – | – | – | > 100 µM |

Next, values leading:

| BMM IC50 M (MCP-1) [1] | IC50 [2] | IC50 ([3]; Homo sapiens, THP-1) | BMM IC50 R (RANTES) [4] | IC50 [1] | IC50 ([4]; Mus musculus, Macrophage, read-out: BMM IC50 R (RANTES)) | IC50 ([3]; read-out: THP-1 IC50) | SMILES |
| --- | --- | --- | --- | --- | --- | --- | --- |
| C | 20 to 250 µM | > 100 µM | – | – | – | – | Cc1[nH]c2c(-c3ccccc3)c(C(F)(F)F)nn2c(=O)c1-c1nc2cccc(N)c2[nH]1 [Compound C1008, 6-(7-amino-1H-benzo[d]imidazol-2-yl)-5-methyl-3-phenyl-2-(trifluoromethyl)pyrazolo[1,5-a]pyrimidin-7(4H)-one] |
| C | < 20 µM | < 20 µM | – | – | – | – | COc1cccc2oc(-c3c(C)[nH]c4c(-c5ccccc5)c(C(F)(F)F)nn4c3=O)nc12 [Compound C1014, 6-(4-methoxybenzo[d]oxazol-2-yl)-5-methyl-3-phenyl-2-(trifluoromethyl)pyrazolo[1,5-a]pyrimidin-7(4H)-one] |
| C | 20 to 250 µM | – | C | – | – | – | COCc1[nH]c2c(-c3ccccc3)c(C(F)(F)F)nn2c(=O)c1-c1c(COC)[nH]c2c(-c3ccccc3)c(C(F)(F)F)nn2c1=O [Compound C1029, 5,5′-bis(methoxymethyl)-3,3′-diphenyl-2,2′-bis(trifluoromethyl)-[6,6′-bipyrazolo[1,5-a]pyrimidine]-7,7′(4H,4′H)-dione] |
| C | < 20 µM | < 20 µM | – | – | – | – | COCc1[nH]c2c(-c3ccccc3)c(C(F)(F)F)nn2c(=O)c1-c1nc2c(OC)cccc2o1 [Compound C1056, 6-(4-methoxybenzo[d]oxazol-2-yl)-5-(methoxymethyl)-3-phenyl-2-(trifluoromethyl)pyrazolo[1,5-a]pyrimidin-7(4H)-one] |
| C | 20 to 250 µM | – | C | – | – | – | CCOC(=O)Cc1[nH]c2c(-c3ccccc3)c(C(F)(F)F)nn2c(=O)c1-c1nc2c(OC)cccc2o1 [Compound C1140, ethyl 2-(6-(4-methoxybenzo[d]oxazol-2-yl)-7-oxo-3-phenyl-2-(trifluoromethyl)-4,7-dihydropyrazolo[1,5-a]pyrimidin-5-yl)acetate] |
| C | 20 to 250 µM | – | C | – | – | – | COc1cccc2oc(-c3c(CC(=O)O)[nH]c4c(-c5ccccc5)c(C(F)(F)F)nn4c3=O)nc12 [Compound C1147, 2-(6-(4-methoxybenzo[d]oxazol-2-yl)-7-oxo-3-phenyl-2-(trifluoromethyl)-4,7-dihydropyrazolo[1,5-a]pyrimidin-5-yl)acetic acid] |
| C | 20 to 250 µM | – | C | – | – | – | COc1cccc2c1nc(-c1c(C)[nH]c3c(-c4ccccc4)c(C(F)(F)F)nn3c1=O)n2C1CCCCC1 [Compound C1176, 6-(1-cyclohexyl-4-methoxy-1H-benzo[d]imidazol-2-yl)-5-methyl-3-phenyl-2-(trifluoromethyl)pyrazolo[1,5-a]pyrimidin-7(4H)-one] |
| C | 20 to 250 µM | – | C | – | – | – | Cc1[nH]c2c(-c3ccccc3)c(C(F)(F)F)nn2c(=O)c1-c1nc2ccccc2n1C1CCCCC1 [Compound C1190, 6-(1-cyclohexyl-1H-benzo[d]imidazol-2-yl)-5-methyl-3-phenyl-2-(trifluoromethyl)pyrazolo[1,5-a]pyrimidin-7(4H)-one] |
| C | < 20 µM | – | C | – | – | – | COc1cccc2oc(-c3c(C4CCC(CO)C4)[nH]c4c(-c5ccccc5)c(C(F)(F)F)nn4c3=O)nc12 (stereo not drawn) [Compound C1236, 5-(3-(hydroxymethyl)cyclopentyl)-6-(4-methoxybenzo[d]oxazol-2-yl)-3-phenyl-2-(trifluoromethyl)pyrazolo[1,5-a]pyrimidin-7(4H)-one] |
| – | < 20 µM | > 100 µM | – | – | – | – | Cc1[nH]c2c(-c3ccccc3)c(C(F)(F)F)nn2c(=O)c1-c1nnc(C2=NCCCN2)o1 [Compound D1072, 5-methyl-3-phenyl-6-(5-(1,4,5,6-tetrahydropyrimidin-2-yl)-1,3,4-oxadiazol-2-yl)-2-(trifluoromethyl)pyrazolo[1,5-a]pyrimidin-7(4H)-one] |
| – | < 20 µM | > 100 µM | – | – | – | – | Cc1[nH]c2c(-c3ccccc3)c(C(F)(F)F)nn2c(=O)c1-c1nnc(NC(=N)N)o1 [Compound D1077, 1-(5-(5-methyl-7-oxo-3-phenyl-2-(trifluoromethyl)-4,7-dihydropyrazolo[1,5-a]pyrimidin-6-yl)-1,3,4-oxadiazol-2-yl)guanidine] |
| – | < 20 µM | > 100 µM | – | – | – | – | Cc1[nH]c2c(-c3ccccc3)c(C(F)(F)F)nn2c(=O)c1-c1nnc(-c2nccc(O)n2)o1 [Compound D1078, 6-(5-(4-hydroxypyrimidin-2-yl)-1,3,4-oxadiazol-2-yl)-5-methyl-3-phenyl-2-(trifluoromethyl)pyrazolo[1,5-a]pyrimidin-7(4H)-one] |
| – | < 20 µM | > 100 µM | – | – | – | – | Cc1[nH]c2c(-c3ccccc3)c(C(F)(F)F)nn2c(=O)c1-c1nnc(-c2ccnc(O)c2)o1 [Compound D1085, 6-(5-(2-hydroxypyridin-4-yl)-1,3,4-oxadiazol-2-yl)-5-methyl-3-phenyl-2-(trifluoromethyl)pyrazolo[1,5-a]pyrimidin-7(4H)-one] |
| – | < 20 µM | > 100 µM | – | – | – | – | Cc1[nH]c2c(-c3ccccc3)c(C(F)(F)F)nn2c(=O)c1-c1nnc(-c2cccc(O)n2)o1 [Compound D1086, 6-(5-(6-hydroxypyridin-2-yl)-1,3,4-oxadiazol-2-yl)-5-methyl-3-phenyl-2-(trifluoromethyl)pyrazolo[1,5-a]pyrimidin-7(4H)-one] |
